In ChEMBL document CHEMBL5120777, “Incorporating Selenium into Heterocycles and Natural Products─From Chemical Properties to Pharmacological Activities” (J Med Chem, 2022) one finds IC50 data, which are given here for one compound.

Holding throughout (type): functional, cell-based
One test deals with SK-OV-3. The experiment in a line: Antiproliferative activity against human SK-OV-3 cells assessed as inhibition of cell growth incubated for 72 hrs by MTT assay. As to conditions: SK-OV-3, 72 h. (Tetrazolium assays rely on reduction of a dye to a coloured formazan, in cell work by metabolically active cells.)
In the next test the test system is PC-3. As to the kind of experiment: Antiproliferative activity against human PC-3 cells assessed as inhibition of cell growth incubated for 72 hrs by MTT assay. As to conditions: PC-3, 72 h.
The next test relates to T47D. The experiment in a line: Antiproliferative activity against human T47D cells assessed as inhibition of cell growth incubated for 72 hrs by MTT assay.

Turning to `CC(=O)O[C@H]1CC[C@@]2(C)C(=CC[C@@H]3[C@@H]2CC[C@]2(C)C(c4cccnc4)=CC[C@@H]32)C1` [ABIRATERONE ACETATE], the IC50 in the test on SK-OV-3 came to 51.5 µM; in the test on PC-3 it was 37.6 µM; in the test with T47D, 34.7 µM.

A word on the IC50: it is the concentration needed to halve the response being measured.
